Active and inactive are the calls of the source. No cut-off for these calls is given here.

What is called EC50 is the concentration giving half of the maximal effect. The IC50 is the concentration at which inhibition is half-maximal. High values mean weaker potency in that assay, low ones greater potency in that assay.

Series [1] has as its target Cannabinoid receptor 1 (Homo sapiens, UniProt P21554). Kind of series: Inverse agonist activity at human CB1 receptor expressed in HEK293 cells assessed as inhibition of forskolin-induced cAMP accumulation after 30 mins by HTRF assay. The format is functional, cell-based.
The nature of series [2]: Metabolic stability in human liver microsomes assessed as parent compound remaining at 1 uM after 10 mins in presence of NADPH. The series is classed as ADME, microsome. The following applies: read-out: Stability.
The nature of series [3]: Metabolic stability in rat liver microsomes assessed as parent compound remaining at 1 uM after 10 mins in presence of NADPH. The following applies: read-out: Stability. The format is ADME, microsome. A general note: Microsomes from liver hold many membrane-bound enzymes, among them those of drug oxidation.
Series [4] in a line: Metabolic stability in mouse liver microsomes assessed as parent compound remaining at 1 uM after 10 mins in presence of NADPH. The format is ADME, microsome. The following applies: read-out: Stability.
Series [5] in a line: Drug uptake in C57BL/6J mouse plasma at 20 mg/kg, po measured after 1 hr. The format is ADME, organism-based.
Series [6] is described as follows: Drug uptake in C57BL/6J mouse plasma at 20 mg/kg, po measured after 4 hrs. The format is ADME, organism-based.
Series [7] is described as follows: Drug uptake in C57BL/6J mouse brain at 20 mg/kg, po measured after 1 hr. The following applies: in vivo, BLD = below limit of detection. The format is ADME, organism-based.
Series [8] is described as follows: Drug uptake in C57BL/6J mouse brain at 20 mg/kg, po measured after 4 hrs. The note with it: in vivo. The format is ADME, organism-based.
Series [9] is described as follows: Ratio of drug level in C57BL/6J mouse brain to plasma at 20 mg/kg, po measured after 4 hrs. The series is classed as ADME, organism-based. The note with it: read-out: BPR.
Series [10] in a line: Drug uptake in plasma of diet-induced obese C57BL/6J mouse model at 10 mg/kg administered as daily dose measured at 2 hrs post last dose on day 5. The format is ADME, organism-based.
Series [11] is described as follows: Drug uptake in brain of diet-induced obese C57BL/6J mouse model at 10 mg/kg administered as daily dose measured at 2 hrs post last dose on day 5. The following applies: in vivo. The series is classed as ADME, organism-based.
Series [12] is described as follows: Ratio of drug level in brain to plasma of diet-induced obese C57BL/6J mouse model at 10 mg/kg administered as daily dose measured at 2 hrs post last dose on day 5. The series is classed as ADME, organism-based. The following applies: read-out: BPR.
In series [13] the test system is Mus musculus. Kind of series: Antiobesity activity in diet induced obese C57BL/6J mouse model assessed as decrease in food intake at 10 mg/kg administered as daily dose measured every day for 5 days. The format is functional, organism-based.
Series [14] concerns Mus musculus. Kind of series: Antiobesity activity in diet induced obese C57BL/6J mouse model assessed as decrease in body weight at 10 mg/kg administered as daily dose measured every day for 5 days. The series is classed as functional, organism-based.
Series [15] deals with Mus musculus. Kind of series: In vivo receptor occupancy at CB1 receptor in brain of diet induced obese C57BL/6J mouse model at 10 mg/kg, po administered as daily dose for 5 days measured 10 mins post last dose in presence of [3H]-CP-55940 relative to control. The series is classed as functional.
Series [16] has as its target T1, Cytochrome P450 1A2 (Homo sapiens, UniProt P05177).
T1 sequence (P05177 whole entry): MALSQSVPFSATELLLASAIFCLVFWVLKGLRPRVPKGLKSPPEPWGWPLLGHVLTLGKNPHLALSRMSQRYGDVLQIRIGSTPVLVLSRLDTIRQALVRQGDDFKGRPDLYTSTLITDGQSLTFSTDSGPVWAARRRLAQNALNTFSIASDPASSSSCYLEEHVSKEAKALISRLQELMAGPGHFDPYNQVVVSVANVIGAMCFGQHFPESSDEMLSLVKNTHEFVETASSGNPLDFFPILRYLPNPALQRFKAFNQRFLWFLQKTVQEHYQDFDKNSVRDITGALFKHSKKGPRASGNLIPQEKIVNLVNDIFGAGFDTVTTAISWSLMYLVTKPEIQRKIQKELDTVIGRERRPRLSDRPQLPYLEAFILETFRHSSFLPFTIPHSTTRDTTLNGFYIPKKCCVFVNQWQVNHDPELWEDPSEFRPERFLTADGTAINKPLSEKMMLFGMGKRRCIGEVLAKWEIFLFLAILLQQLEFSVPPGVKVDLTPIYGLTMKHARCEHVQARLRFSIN
Kind of series: Inhibition of CYP1A2 in human liver microsomes using phenacetin as substrate after 10 to 30 mins by LC/MS analysis. The series is classed as ADME.

Series [17] concerns the target Cytochrome P450 3A4 (Homo sapiens, UniProt P08684). Kind of series: Inhibition of CYP3A4 in human liver microsomes using midazolam/testosterone as substrate after 10 to 30 mins by LC/MS analysis. The series is classed as ADME.
Series [18] has as its target Cytochrome P450 2C9 (Homo sapiens, UniProt P11712). Kind of series: Inhibition of CYP2C9 in human liver microsomes using tolbutamide as substrate after 10 to 30 mins by LC/MS analysis. The series is classed as ADME.
Series [19] addresses Cytochrome P450 2D6 (Homo sapiens, UniProt P10635). Kind of series: Inhibition of CYP2D6 in human liver microsomes using dextromethorphan as substrate after 10 to 30 mins by LC/MS analysis. The format is ADME.
Series [20] has as its target Cytochrome P450 2C19 (Homo sapiens, UniProt P33261). Kind of series: Inhibition of CYP2C19 in human liver microsomes using (S)-mephenytoin as substrate after 10 to 30 mins by LC/MS analysis. The series is classed as ADME.
Series [21] has as its target Cannabinoid receptor 2 (Homo sapiens, UniProt P34972). Kind of series: Inverse agonist activity at human CB2 receptor expressed in HEK293 cells assessed as […] cAMP accumulation after 30 mins by HTRF assay. The series is classed as functional, cell-based.

Cannabinoid receptor 1, sequence (P21554 whole entry): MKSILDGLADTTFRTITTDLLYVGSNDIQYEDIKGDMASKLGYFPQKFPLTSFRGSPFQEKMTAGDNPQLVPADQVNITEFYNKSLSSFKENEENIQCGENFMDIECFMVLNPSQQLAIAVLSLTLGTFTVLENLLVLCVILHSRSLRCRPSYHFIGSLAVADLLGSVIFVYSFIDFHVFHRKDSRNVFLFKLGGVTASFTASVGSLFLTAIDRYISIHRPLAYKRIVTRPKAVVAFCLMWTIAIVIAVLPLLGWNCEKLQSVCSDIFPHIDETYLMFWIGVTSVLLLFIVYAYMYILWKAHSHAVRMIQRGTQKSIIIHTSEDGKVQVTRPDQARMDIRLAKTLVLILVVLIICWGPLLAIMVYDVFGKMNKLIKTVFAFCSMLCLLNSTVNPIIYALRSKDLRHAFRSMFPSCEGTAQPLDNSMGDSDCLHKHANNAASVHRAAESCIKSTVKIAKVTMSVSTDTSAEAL
Cannabinoid receptor 2, sequence (P34972 whole entry): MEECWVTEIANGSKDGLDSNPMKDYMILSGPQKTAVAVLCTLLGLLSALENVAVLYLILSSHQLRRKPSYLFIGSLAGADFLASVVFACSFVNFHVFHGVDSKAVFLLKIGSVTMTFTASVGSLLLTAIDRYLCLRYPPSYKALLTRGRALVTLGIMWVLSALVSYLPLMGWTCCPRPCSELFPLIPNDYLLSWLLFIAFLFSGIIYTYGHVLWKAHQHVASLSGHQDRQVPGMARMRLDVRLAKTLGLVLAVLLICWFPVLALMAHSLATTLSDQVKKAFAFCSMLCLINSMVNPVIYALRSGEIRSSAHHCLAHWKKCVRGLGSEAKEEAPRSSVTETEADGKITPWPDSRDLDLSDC
Cytochrome P450 3A4, sequence (P08684 whole entry): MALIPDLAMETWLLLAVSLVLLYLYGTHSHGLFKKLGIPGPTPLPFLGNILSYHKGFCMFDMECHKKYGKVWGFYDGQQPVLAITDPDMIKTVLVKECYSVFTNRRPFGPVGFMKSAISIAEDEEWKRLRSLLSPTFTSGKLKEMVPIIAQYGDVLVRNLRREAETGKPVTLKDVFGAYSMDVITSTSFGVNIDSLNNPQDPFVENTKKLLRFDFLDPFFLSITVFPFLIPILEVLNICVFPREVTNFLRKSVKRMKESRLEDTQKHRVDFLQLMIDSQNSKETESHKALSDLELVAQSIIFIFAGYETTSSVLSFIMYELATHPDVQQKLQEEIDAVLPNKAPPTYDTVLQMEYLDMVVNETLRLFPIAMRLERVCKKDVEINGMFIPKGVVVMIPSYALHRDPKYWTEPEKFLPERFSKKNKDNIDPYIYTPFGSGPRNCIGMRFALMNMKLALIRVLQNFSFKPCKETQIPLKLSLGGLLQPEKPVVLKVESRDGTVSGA
Cytochrome P450 2C9, sequence (P11712 whole entry): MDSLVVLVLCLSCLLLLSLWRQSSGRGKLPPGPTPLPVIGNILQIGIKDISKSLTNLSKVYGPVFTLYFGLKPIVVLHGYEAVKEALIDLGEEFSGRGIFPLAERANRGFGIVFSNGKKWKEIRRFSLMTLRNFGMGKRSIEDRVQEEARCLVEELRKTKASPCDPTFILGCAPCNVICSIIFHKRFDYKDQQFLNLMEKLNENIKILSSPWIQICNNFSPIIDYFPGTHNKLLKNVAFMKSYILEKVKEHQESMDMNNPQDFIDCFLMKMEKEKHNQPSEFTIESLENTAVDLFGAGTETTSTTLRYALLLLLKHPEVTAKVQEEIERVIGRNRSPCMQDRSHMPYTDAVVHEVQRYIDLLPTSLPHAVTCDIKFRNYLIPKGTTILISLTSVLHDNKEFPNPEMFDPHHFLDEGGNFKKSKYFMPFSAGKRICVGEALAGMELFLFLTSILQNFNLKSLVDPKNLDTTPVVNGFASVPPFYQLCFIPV
Cytochrome P450 2C19, sequence (P33261 whole entry): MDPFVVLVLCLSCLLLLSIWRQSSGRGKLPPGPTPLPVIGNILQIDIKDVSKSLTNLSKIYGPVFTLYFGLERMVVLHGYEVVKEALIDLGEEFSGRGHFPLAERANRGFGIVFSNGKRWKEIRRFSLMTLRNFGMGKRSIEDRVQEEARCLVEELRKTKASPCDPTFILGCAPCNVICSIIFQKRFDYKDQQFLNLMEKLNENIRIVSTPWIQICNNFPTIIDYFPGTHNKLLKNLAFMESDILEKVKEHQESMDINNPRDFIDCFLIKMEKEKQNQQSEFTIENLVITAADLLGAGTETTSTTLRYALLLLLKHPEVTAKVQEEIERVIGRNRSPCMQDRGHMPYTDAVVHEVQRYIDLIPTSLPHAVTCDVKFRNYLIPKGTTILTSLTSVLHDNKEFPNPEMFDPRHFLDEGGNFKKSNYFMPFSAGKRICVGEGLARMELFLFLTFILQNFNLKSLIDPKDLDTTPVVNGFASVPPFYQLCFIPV
Cytochrome P450 2D6, sequence (P10635 whole entry): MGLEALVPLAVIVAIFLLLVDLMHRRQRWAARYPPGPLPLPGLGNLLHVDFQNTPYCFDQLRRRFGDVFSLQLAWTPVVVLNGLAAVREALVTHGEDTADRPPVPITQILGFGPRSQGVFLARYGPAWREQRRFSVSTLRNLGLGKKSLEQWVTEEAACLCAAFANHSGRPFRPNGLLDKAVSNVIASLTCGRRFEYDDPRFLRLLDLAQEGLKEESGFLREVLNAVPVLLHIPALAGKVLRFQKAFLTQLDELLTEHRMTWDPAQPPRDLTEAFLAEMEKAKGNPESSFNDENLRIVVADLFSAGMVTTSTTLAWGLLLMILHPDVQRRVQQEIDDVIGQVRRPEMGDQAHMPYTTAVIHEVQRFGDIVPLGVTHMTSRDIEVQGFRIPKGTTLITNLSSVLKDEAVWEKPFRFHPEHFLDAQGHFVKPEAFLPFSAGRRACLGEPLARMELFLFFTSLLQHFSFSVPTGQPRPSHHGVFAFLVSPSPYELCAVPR

As to `O=c1cc(NC2CCN(S(=O)(=O)C(F)(F)F)CC2)c2cc(C(c3ccc(Cl)cc3)n3ccnc3)ccc2[nH]1` (stereo not given), in series [1], the EC50 was 5 nM.
Turning to `O=c1cc(NC2CCN(c3ncccn3)CC2)c2cc(C(c3ccc(Cl)cc3)c3ccc(Cl)cc3)ccc2[nH]1`, the results for the remaining at 10 min, 1 µM in [2], in series [3] and in series [4] were 43%, 69% and 57%, respectively. The same molecule showed a concentration at 1 h in [5] of 4160 nM. Moreover, the concentration at 4 h in series [6] was 2890 nM. The Drug uptake entry in series [7] is on record as “Bld”; in series [8] it was 0.107 nmol/g. Also, the Kp at 4 h in series [9] is 0.037.
Turning to `O=c1cc(OCc2ccccc2)c2cc(C(c3ccc(Cl)cc3)n3ccnc3)ccc2[nH]1` (stereo not given), the EC50 in series [1] is 1150 nM.
Turning to `O=c1cc(/C=C/c2ccccc2)c2cc(C(O)c3ccc(Cl)cc3)ccc2[nH]1` (stereo not given), the EC50 in series [1] is greater than 10000 nM.
`O=c1cc(Cc2ccc(OC(F)(F)F)cc2)c2cc(C(c3ccc(Cl)cc3)n3ccnc3)ccc2[nH]1` (stereo not given): in series [1], the EC50 was determined as 113 nM.
For `Cc1c(C(=O)NN2CCCCC2)nn(-c2ccc(Cl)cc2Cl)c1-c1ccc(Cl)cc1` [RIMONABANT], in series [10], the concentration at 2 h was 1500 nM. The Drug uptake in series [11] was determined as 1.46 nmol/g. In series [12], the Kp at 2 h was 0.98. Further, the outcome in [13] and in series [14] was Active. Further, the Occ in series [15] is recorded as 81.7%.
As for `O=c1cc(NC2CCN(S(=O)(=O)C(F)(F)F)CC2)c2cc(C(c3ccc(Cl)cc3)c3nccs3)ccc2[nH]1` (stereo not given), the remaining at 10 min, 1 µM came to 62.2% in series [2], 60.1% in [3] and 47.8% in series [4]. For the same molecule, the IC50 in [16] was greater than 10000 nM; in series [17] it was greater than 10000 nM; in [18] it was greater than 10000 nM; in series [19], greater than 10000 nM; in [20], 8000 nM.
For `O=c1cc(NC2CCN(S(=O)(=O)C(F)(F)F)CC2)c2cc(Cc3ccc(Cl)cc3)ccc2[nH]1`, the EC50 in series [1] is 260 nM.
With `CCOC(=O)CC(=O)N1CCC(Nc2cc(=O)[nH]c3ccc(C(c4ccc(Cl)cc4)c4ccc(Cl)cc4)cc23)CC1`, in series [1], the EC50 amounted to 13.5 nM.
`CS(=O)(=O)N1CCC(Nc2cc(=O)[nH]c3ccc(C(c4ccc(Cl)cc4)c4ccc(Cl)cc4)cc23)CC1`: the EC50 in [21] was greater than 10000 nM.
For the molecule `O=C(O)CCCCCOc1cc(NC2CCN(S(=O)(=O)C(F)(F)F)CC2)c2cc(C(c3ccc(Cl)cc3)c3ccc(Cl)cc3)ccc2n1`, in series [21], the EC50 is 61 nM.
In the case of `O=S(=O)(N1CCC(Nc2ccnc3c(O)cc(C(c4ccc(Cl)cc4)c4ccc(Cl)cc4)cc23)CC1)C(F)(F)F`, in series [1], the EC50 was determined as 399 nM.
On the same count and under the same terms, the same measure for `COc1ccc(C(c2ccc(Cl)cc2)c2ccc3[nH]c(=O)cc(NC4CCN(S(=O)(=O)C(F)(F)F)CC4)c3c2)cc1` (stereo not given): 8.4 nM; for `O=c1cc([C@@H]2C[C@@H]2c2ccccc2)c2cc(C(c3ccc(Cl)cc3)n3ccnc3)ccc2[nH]1` (stereo not given in full): 66 nM.
As for `COCCOCCOCCOCCOCCOCCOCCOc1cc(NC2CCN(S(=O)(=O)C(F)(F)F)CC2)c2cc(C(c3ccc(Cl)cc3)c3ccc(Cl)cc3)ccc2n1`, the results for the EC50 in series [1] and in series [21] were 457 nM and 5900 nM, respectively.
In the case of `O=C(O)c1cccc(S(=O)(=O)N2CCC(Nc3cc(=O)[nH]c4ccc(C(c5ccc(Cl)cc5)c5ccc(Cl)cc5)cc34)CC2)c1`, in series [21], the EC50 came out at 8690 nM.
Regarding `COCCOc1cc(NC2CCN(S(=O)(=O)C(F)(F)F)CC2)c2cc(C(c3ccc(Cl)cc3)c3ccc(Cl)cc3)ccc2n1`, the EC50 in series [1] was found to be 22 nM.
On the same count and under the same terms, the same measure for `O=c1cc(/C=C/c2ccccc2)c2cc(C(c3ccc(Cl)cc3)n3ccnc3)ccc2[nH]1` (stereo not given): 165 nM.
On to `O=c1cc(N[C@@H]2CCN(S(=O)(=O)C(F)(F)F)C2)c2cc(C(c3ccc(Cl)cc3)c3nccs3)ccc2[nH]1` (stereo not given in full), for which the remaining at 10 min, 1 µM in [2] was 20.4%; in series [3] it was 27.9%; in series [4], 19.1%.
On to `O=c1cc(CCc2ccccc2)c2cc(C(c3ccc(Cl)cc3)n3ccnc3)ccc2[nH]1` (stereo not given), for which the EC50 in series [1] was greater than 10000 nM.
As to `O=c1cc(/C=C/c2ccc(C(F)(F)F)cc2)c2cc(C(c3ccc(Cl)cc3)c3nccs3)ccc2[nH]1` (stereo not given), the IC50 in series [16], in series [17], in [18], in series [19] and in series [20] was greater than 10000 nM each time.
For `COCCCc1cc(C(c2ccc(Cl)cc2)c2ccc(Cl)cc2)cc2c(NC3CCN(S(=O)(=O)C(F)(F)F)CC3)cc(=O)[nH]c12`, in series [21], the EC50 turned out to be 61 nM.
In the case of `O=C(Nc1cc(=O)[nH]c2ccc(C(c3ccc(Cl)cc3)n3ccnc3)cc12)c1ccccc1` (stereo not given), in [1], the EC50 was greater than 10000 nM.
Take `O=C(O)COc1cc(C(c2ccc(Cl)cc2)c2ccc(Cl)cc2)cc2c(NC3CCN(S(=O)(=O)C(F)(F)F)CC3)ccnc12`: the EC50 in [21] was greater than 10000 nM.

The record behind these values is ChEMBL document CHEMBL4270663, “6-Benzhydryl-4-amino-quinolin-2-ones as Potent Cannabinoid Type 1 (CB1) Receptor Inverse Agonists and Chemical Modifications for Peripheral Selectivity” (J Med Chem, 2018).
